{"source": "patent US4477664A", "about": "“Novel 1-(4-piperidiniobenzyl)-2,3-dioxopiperazine derivatives or acid addition salts thereof” (Toyama Chemical Co., Ltd., priority 1979, dated 1984)", "key": {"HeLa S3 cells": {"tested_on": "HeLa S3 cells", "test": "MIC value against HeLa S3 cells (microplate method)", "assay_type": "cell-based", "conditions": "Homo sapiens, 96 h, 2×10^4 cells/ml, 4 days, Giemsa staining", "text": "(§1) a. MIC value against HeLa S3 cells and Ehrlich cells (microplate method) Number of cells: 2×10^4 cells/ml Culture medium: Eagle's MEM+20% calf embryonic serum Culture time: 4 days Judgement: Giemsa staining"}, "Ehrlich cells": {"tested_on": "Ehrlich cells", "test": "MIC value against Ehrlich cells (microplate method)", "assay_type": "cell-based", "conditions": "96 h, 2×10^4 cells/ml, 4 days, Giemsa staining", "text": "as §1"}, "[1]": {"tested_on": "Ehrlich ascites carcinoma cells", "test": "Effect on Ehrlich carcinoma (i): intraperitoneal inoculation, mean survival days", "assay_type": "in vivo, ICR-strain mice", "conditions": "Mus musculus, ip, 168 h, once a day for 7 days, read-out: T/C (mean survival days)", "method": "(i) Ehrlich ascites carcinoma cells (1×10^6 cells/head) were inoculated intraperitoneally into ICR-strain mice (female, 6 to 7 weeks old, each group consisting of 5 or 4 mice), and after 24 hours, the […] The effect thereof was judged from the mean survival days.\nThe test drugs were used in the form of a solution or suspension in a saline solution or a 0.3% carboxymethyl cellulose-containing saline solution. [formula]"}, "[2]": {"tested_on": "Sarcoma 180 ascites cells", "test": "Effect on Sarcoma 180 carcinoma: intraperitoneal inoculation, mean survival days", "assay_type": "in vivo, ICR-strain mice", "conditions": "once a day for 7 days", "method": "Sarcoma 180 ascites cells (1×10^6 cells/head) were inocualted intraperitoneally into ICR-strain mice (female, 6 weeks old, each group consisting of 4 or 5 mice), and after 24 hours, the intraperitoneal administration of a test drug was started, and effected once a day for 7 days. The effect thereof was judged from the mean survival days. The test drug was used in the form of a solution or suspension in a saline solution or a 0.3% carboxymethyl cellulose-containing saline solution. [formula]"}, "L-1210 ascites cells [3]": {"tested_on": "L-1210 ascites cells", "test": "Effect on L-1210 leukemia (i): intraperitoneal inoculation, mean survival days", "assay_type": "in vivo, BDF1-strain mice", "method": "(i) L-1210 ascites cells (1×10^5 cells/head) were inoculated intraperitoneally into BDF1 -strain mice (female, 6 weeks old, each group consisting of 4 mice), and after 24 hours, the intraperitoneal administration of a test drug was started and effected once a day. The effect thereof was judged from the mean survival days. The test drug was used in the form of a solution or suspension in a saline solution or a 0.3% carboxymethyl cellulose-containing saline solution.\nT/C was calculated in the same manner as in above b (i)."}, "P-388 ascites cells [4]": {"tested_on": "P-388 ascites cells", "test": "Effect on P-388 leukemia (i): intraperitoneal inoculation, mean survival days", "assay_type": "in vivo, BDF1-strain mice", "conditions": "100 mg/kg, once a day for 7 days", "method": "(i) P-388 ascites cells (1×10^6 cells/head) were inoculated intraperitoneally into BDF1 -strain mice (female, 6 weeks old, each group consisting of 4 mice), and after 24 hours, the intraperitoneal administration of a test drug was started and effected once a day for 7 days. The effect thereof was judged from the mean survival days. The test drug was used in the form of a solution or suspension in a saline solution or a 0.3% carboxymethyl cellulose-containing saline solution. T/C was calculated in the same manner as in above b(i)."}, "Acute toxicity": {"test": "Acute toxicity", "conditions": "mouse, in vivo, ip", "text": "The test drugs were used in the form of a solution or suspension in a saline solution or a 0.3% carboxymethyl cellulose-containing saline solution."}, "[5]": {"tested_on": "Ehrlich ascites carcinoma cells", "test": "Effect on Ehrlich carcinoma (ii): subcutaneous inoculation at inguinal region, mean tumor weight", "assay_type": "in vivo, ICR-strain mice", "conditions": "250 mg/kg, orally, once a day for 5 days, judgement day 15", "method": "(ii) Ehrlich ascites carcinoma cells (4×10^6 cells/head) were inoculated subcutaneously at the inguinal region into ICR-strain mice (female, 6 to 7 weeks old, each group consisting of 5 or 4 mice), and after 24 hours, the intraperitaneal or oral administration of a test drug was started and effected once a day for 5 days. The effect thereof was judged from the mean weight of tumor on the 13th or 15th day, respectively.\nThe test drug was used in the form of a solution or suspension in a saline solution or a 0.3% carboxymethyl cellulose-containing saline solution. [formula]"}, "[6]": {"tested_on": "Ehrlich ascites carcinoma cells", "test": "Effect on Ehrlich carcinoma (iii): subcutaneous inoculation at right armpit, mean tumor weight", "assay_type": "in vivo, ICR-strain mice", "conditions": "once a day for 7 days, 14th day", "method": "(iii) Ehrlich ascites carcinoma cells (4×10^6 cells/head) were inoculated subcutaneously at the right armpit region into ICR-strain mice (female, 7 weeks old, each group consisting of 6 or 7 mice), and after 24 hours, the oral administration or subcutaneous administration at the dorsal region of a test drug was started, and effected once a day for 7 days. The effect thereof was judged from the mean weight of the tumor on the 14th day. The test drug was used in the form of a solution or suspension in a saline solution or a 0.3% carboxymethyl cellulose-containing saline solution.\nT/C was calculated in the same manner as in above (ii)."}, "L-1210 ascites cells [7]": {"tested_on": "L-1210 ascites cells", "test": "Effect on L-1210 leukemia (ii): subcutaneous inoculation, mean survival days and tumor weight", "assay_type": "in vivo, BDF1-strain mice", "conditions": "oral; for T/C Tumor Weight: 9th day", "method": "(ii) L-1210 ascites cells (1×10^6 cells/head) were inoculated subcutaneously into BDF1 -strain mice (male, 6 weeks old, each group consisting of 4 mice), and after 24 hours, the oral administration of a test drug was started, and effected once a day for […]. The effect thereof was judged from the mean survival days and the weight of the tumor on the 9th day.\nThe test drug was used in the form of a suspension in a 0.3% carboxymethyl cellulose-containing saline solution. T/C was calculated in the same manner as in above b(i) and b(ii)."}, "P-388 ascites cells [8]": {"tested_on": "P-388 ascites cells", "test": "Effect on P-388 leukemia (ii): subcutaneous inoculation, mean tumor weight", "assay_type": "in vivo, BDF1-strain mice", "conditions": "oral, once a day for 7 days, 11th day", "method": "(ii) P-388 ascites cells (1×10^6 cells/head) were inoculated subcutaneously at the right armpit into BDF1 -strain mice (male, 7 weeks old, each group consisting of 8 mice), and after 24 hours, the oral administration of a test drug was started, and effected once a day for 7 days. The effect thereof was judged from the mean weight of the tumor at the 11th day. The test drug was used in the form of a suspension or solution in a 0.3% carboxymethyl cellulose-containing saline solution or a dimethylsulfoxide-propylene glycolphosphate buffer (1:2:1) mixture. T/C was calculated in the same manner as in above b(ii)."}, "[9]": {"tested_on": "Lewis lung carcinoma cells", "test": "Effect on Lewis lung carcinoma: subcutaneous inoculation, average tumor weight", "assay_type": "in vivo, BDF1-strain mice", "conditions": "oral, once a day for 7 days, 21st day", "method": "Lewis lung carcinoma cells (1×10^6 cells/head) were inoculated subcutaneously at the right armpit region into BDF1 -strain mice (male, 6 weeks old, each group consisting of 5 mice) and after 24 hours, the oral administration of a test drug was started and effected once a day for 7 days. The effect thereof was judged from the average weight of tumor on the 21st day. The test drug was used in the form of a suspension in a 0.3% carboxymethyl cellulose-containing saline solution. T/C was calculated in the same manner as in above b(ii)."}, "B-16 melanoma cells": {"tested_on": "B-16 melanoma cells", "test": "Effect on B-16 melanoma: subcutaneous inoculation, mean tumor weight", "assay_type": "in vivo, BDF1-strain mice", "method": "B-16 melanoma cells (1×10^6 cells/head) were inoculated subcutaneously at the right armpit region into BDF1 -strain mice (male, 7 weeks old, each group consisting of 8 mice), and after 24 hours, the oral administration or subcutaneous administration at the […] […] The test drug was used in the form of a suspension or solution in a 0.3% carboxymethyl cellulose-containing saline solution or dimethylsulfoxide-propylene glycol (1:1) mixture. T/C was calculated in the same manner as in above b(ii)."}}}
{"smiles": "CCCCCCN1CCN(Cc2ccc(Nc3ncccn3)cc2)C(=O)C1=O", "note": "[Compound 7]", "values": [{"measurement": "MIC", "setting": "HeLa S3 cells", "result": "0.39 to 0.78", "unit": "µg/mL"}, {"measurement": "MIC", "setting": "Ehrlich cells", "result": "0.39 to 0.78", "unit": "µg/mL"}, {"measurement": "response vs control in vivo at 50 mg/kg", "setting": "[1]; 50 mg/kg", "result": "> 187", "unit": "%"}, {"measurement": "response vs control in vivo at 100 mg/kg", "setting": "[1]", "result": "> 207", "unit": "%"}, {"measurement": "T/C (mean survival days)", "setting": "[2]; 100 mg/kg", "result": "> 183.1", "unit": "%"}, {"measurement": "Survival Ratio in Days Shown in Parenthesis", "setting": "[2]; 100 mg/kg, 35 days", "result": "3/4"}, {"measurement": "T/C (mean survival days)", "setting": "L-1210 ascites cells [3]; 50 mg/kg, 9 administrations", "result": 181, "unit": "%"}, {"measurement": "T/C (mean survival days)", "setting": "L-1210 ascites cells [3]; 100 mg/kg, 7 administrations", "result": 168.7, "unit": "%"}, {"measurement": "T/C (mean survival days)", "setting": "L-1210 ascites cells [3]; 200 mg/kg, 3 administrations", "result": 159.5, "unit": "%"}, {"measurement": "T/C (mean survival days)", "setting": "P-388 ascites cells [4]", "result": 166.3, "unit": "%"}, {"measurement": "LD50 at 168 h", "setting": "Acute toxicity", "result": "> 1000", "unit": "mg/kg"}]}
{"smiles": "O=C1C(=O)N(Cc2ccc(Nc3ncccn3)cc2)CCN1Cc1ccccc1", "note": "[Compound 13]", "values": [{"measurement": "MIC", "setting": "HeLa S3 cells", "result": 0.1, "unit": "µg/mL"}, {"measurement": "MIC", "setting": "Ehrlich cells", "result": 0.1, "unit": "µg/mL"}, {"measurement": "response vs control in vivo at 100 mg/kg", "setting": "[1]", "result": "> 177", "unit": "%"}, {"measurement": "T/C (mean tumor weight)", "setting": "[5]", "result": 32.4, "unit": "%"}, {"measurement": "T/C (mean tumor weight)", "setting": "[6]; 50 mg/kg, subcutaneously", "result": 54, "unit": "%"}, {"measurement": "T/C (mean tumor weight)", "setting": "[6]; 100 mg/kg, orally", "result": 48, "unit": "%"}, {"measurement": "T/C (mean tumor weight)", "setting": "[6]; 200 mg/kg, orally", "result": 26, "unit": "%"}, {"measurement": "T/C (mean survival days)", "setting": "[2]; 50 mg/kg", "result": "> 204", "unit": "%"}, {"measurement": "Survival Ratio in Days Shown in Parenthesis", "setting": "[2]; 50 mg/kg, 32 days", "result": "4/5"}, {"measurement": "T/C (mean survival days)", "setting": "L-1210 ascites cells [3]; 50 mg/kg, 9 administrations", "result": 240.5, "unit": "%"}, {"measurement": "T/C (mean survival days)", "setting": "L-1210 ascites cells [3]; 100 mg/kg, 6 administrations", "result": 150, "unit": "%"}, {"measurement": "T/C (mean survival days)", "setting": "L-1210 ascites cells [3]; 200 mg/kg, 3 administrations", "result": 229, "unit": "%"}, {"measurement": "T/C Survival Days", "setting": "L-1210 ascites cells [7]; 50 mg/kg", "result": 120.0, "unit": "%"}, {"measurement": "T/C Tumor Weight", "setting": "L-1210 ascites cells [7]; 50 mg/kg", "result": 156.6, "unit": "%"}, {"measurement": "T/C Survival Days", "setting": "L-1210 ascites cells [7]; 100 mg/kg", "result": 194.4, "unit": "%"}, {"measurement": "T/C Tumor Weight", "setting": "L-1210 ascites cells [7]; 100 mg/kg", "result": 2.6, "unit": "%"}, {"measurement": "T/C Survival Days", "setting": "L-1210 ascites cells [7]; 250 mg/kg", "result": 127.8, "unit": "%"}, {"measurement": "T/C Tumor Weight", "setting": "L-1210 ascites cells [7]; 250 mg/kg", "result": 0, "unit": "%"}, {"measurement": "T/C (mean tumor weight)", "setting": "P-388 ascites cells [8]; 200 mg/kg", "result": 49, "unit": "%"}, {"measurement": "T/C (mean tumor weight)", "setting": "P-388 ascites cells [8]; 60* mg/kg, solution in dimethylsulfoxide-propylene glycol-phosphate buffer (1:2:1)", "result": 25, "unit": "%"}, {"measurement": "T/C (average tumor weight)", "setting": "[9]; 100 mg/kg", "result": 73.2, "unit": "%"}, {"measurement": "T/C (average tumor weight)", "setting": "[9]; 200 mg/kg", "result": 67.1, "unit": "%"}, {"measurement": "T/C (mean tumor weight)", "setting": "B-16 melanoma cells; 100 mg/kg, orally, 7 administrations, 18th day", "result": 62, "unit": "%"}, {"measurement": "T/C (mean tumor weight)", "setting": "B-16 melanoma cells; 200 mg/kg, orally, 9 administrations, 21st day", "result": 23, "unit": "%"}, {"measurement": "T/C (mean tumor weight)", "setting": "B-16 melanoma cells; 50* mg/kg, subcutaneously, 7 administrations, 19th day, in dimethylsulfoxide-propylene glycol (1:1)", "result": 88, "unit": "%"}, {"measurement": "T/C (mean tumor weight)", "setting": "B-16 melanoma cells; 100* mg/kg, orally, 7 administrations, 19th day, in dimethylsulfoxide-propylene glycol (1:1)", "result": 40, "unit": "%"}, {"measurement": "LD50 at 168 h", "setting": "Acute toxicity", "result": "> 1000", "unit": "mg/kg"}]}
